From article PMC8397297 (ACS Chemical Neuroscience, 2021)

What was measured:
mGAT4 = target: T1, mGAT4 (Mus musculus, UniProt P31650); experiment: [3H]GABA uptake assay in HEK-293 cells stably expressing mGAT4; format: cell-based; details: for IC50: [3H]GABA uptake, read-out: pIC50 ± SEM mGAT4 (converted); for remaining [3H]GABA uptake mGAT4: in the presence of 100 μM inhibitor
T1 construct: expressed in transfected cells; host or cells: HEK-293
T1 sequence (P31650 1-627): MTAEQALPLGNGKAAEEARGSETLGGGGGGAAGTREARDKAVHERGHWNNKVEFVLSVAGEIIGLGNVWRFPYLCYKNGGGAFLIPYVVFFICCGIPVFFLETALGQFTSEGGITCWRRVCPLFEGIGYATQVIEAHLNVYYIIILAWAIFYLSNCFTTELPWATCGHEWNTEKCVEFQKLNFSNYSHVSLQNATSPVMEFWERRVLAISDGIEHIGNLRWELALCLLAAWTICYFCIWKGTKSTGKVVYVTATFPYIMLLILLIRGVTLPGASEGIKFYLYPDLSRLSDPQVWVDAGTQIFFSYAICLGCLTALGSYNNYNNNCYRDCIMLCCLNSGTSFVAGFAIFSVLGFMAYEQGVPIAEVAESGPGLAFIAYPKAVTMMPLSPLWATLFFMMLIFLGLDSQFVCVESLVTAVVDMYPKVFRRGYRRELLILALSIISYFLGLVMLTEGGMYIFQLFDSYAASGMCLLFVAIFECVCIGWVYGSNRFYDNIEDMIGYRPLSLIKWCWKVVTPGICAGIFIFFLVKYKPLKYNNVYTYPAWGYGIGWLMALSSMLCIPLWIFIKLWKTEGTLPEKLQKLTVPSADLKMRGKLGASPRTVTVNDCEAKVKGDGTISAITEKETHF

mGAT1 [1] = target: T2, mGAT1 (Mus musculus, UniProt P31648); experiment: [3H]GABA uptake assay in HEK-293 cells stably expressing mGAT1; format: cell-based; details: for IC50: [3H]GABA uptake, read-out: pIC50 ± SEM mGAT1 (converted); for remaining [3H]GABA uptake mGAT1: in the presence of 100 μM inhibitor
T2 construct: expressed in transfected cells; host or cells: HEK-293

mGAT1 [2] = target: T2, mGAT1; experiment: competitive MS binding assay with NO711 as unlabeled marker (LC-ESI-MS/MS); details: in the presence of 100 μM inhibitor
Protocol: Specific binding affinity toward mGAT1 was determined via a competitive mass spectrometry (MS) binding assay quantified by liquid chromatography–electrospray ionization tandem mass spectrometry (LC–ESI-MS/MS) with NO711 as an unlabeled marker.[50]
MS binding assays for mGAT1 were performed as described earlier.[50] Inhibition of mGAT1 binding by the synthesized compounds was determined in MS binding assays at a screening concentration of 100 μM and analyzed by LC–ESI-MS/MS.

mGAT3 = target: T3, mGAT3 (Mus musculus, UniProt P31649); experiment: [3H]GABA uptake assay in HEK-293 cells stably expressing mGAT3; format: cell-based; details: [3H]GABA uptake; read-out: pIC50 ± SEM mGAT3 (converted)
T3 construct: expressed in transfected cells; host or cells: HEK-293
T3 sequence (P31649 1-602): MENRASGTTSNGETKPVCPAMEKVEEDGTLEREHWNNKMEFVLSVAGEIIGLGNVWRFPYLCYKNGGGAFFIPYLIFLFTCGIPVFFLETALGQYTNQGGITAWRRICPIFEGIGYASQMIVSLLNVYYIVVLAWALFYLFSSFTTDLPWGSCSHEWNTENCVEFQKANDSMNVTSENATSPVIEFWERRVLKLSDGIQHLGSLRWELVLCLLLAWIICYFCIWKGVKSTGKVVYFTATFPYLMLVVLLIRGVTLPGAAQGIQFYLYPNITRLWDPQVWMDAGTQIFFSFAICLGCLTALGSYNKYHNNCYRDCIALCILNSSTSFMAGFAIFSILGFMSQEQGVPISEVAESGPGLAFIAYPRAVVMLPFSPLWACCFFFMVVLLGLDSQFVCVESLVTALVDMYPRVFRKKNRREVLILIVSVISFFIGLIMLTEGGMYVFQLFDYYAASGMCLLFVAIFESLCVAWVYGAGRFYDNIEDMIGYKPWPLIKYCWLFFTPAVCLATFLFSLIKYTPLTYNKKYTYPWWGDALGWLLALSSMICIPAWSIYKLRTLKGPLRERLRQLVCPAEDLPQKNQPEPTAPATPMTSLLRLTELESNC

mGAT2 = target: T4, mGAT2 (Mus musculus, UniProt P31651); experiment: [3H]GABA uptake assay in HEK-293 cells stably expressing mGAT2; format: cell-based; details: for IC50: [3H]GABA uptake, read-out: pIC50 ± SEM mGAT2 (converted); for remaining [3H]GABA uptake mGAT2: in the presence of 100 μM inhibitor
T4 construct: expressed in transfected cells; host or cells: HEK-293
T4 sequence (P31651 1-614): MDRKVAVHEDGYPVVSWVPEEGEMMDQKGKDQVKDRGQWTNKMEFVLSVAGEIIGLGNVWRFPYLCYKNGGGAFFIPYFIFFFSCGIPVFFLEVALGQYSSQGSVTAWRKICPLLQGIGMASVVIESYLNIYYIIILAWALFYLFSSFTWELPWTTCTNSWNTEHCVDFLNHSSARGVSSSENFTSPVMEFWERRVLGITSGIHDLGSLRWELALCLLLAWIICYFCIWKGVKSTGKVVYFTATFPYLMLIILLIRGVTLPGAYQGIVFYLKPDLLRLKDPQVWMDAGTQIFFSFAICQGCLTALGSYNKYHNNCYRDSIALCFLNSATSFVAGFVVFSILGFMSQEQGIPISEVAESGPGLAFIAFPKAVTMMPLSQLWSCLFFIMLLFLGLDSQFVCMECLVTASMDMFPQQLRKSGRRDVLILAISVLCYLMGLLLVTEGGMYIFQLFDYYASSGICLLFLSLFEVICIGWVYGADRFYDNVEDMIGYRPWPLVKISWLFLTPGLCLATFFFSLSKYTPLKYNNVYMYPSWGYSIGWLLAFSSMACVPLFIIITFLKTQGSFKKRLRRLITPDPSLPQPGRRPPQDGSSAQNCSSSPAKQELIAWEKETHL

| IC50 (mGAT4) | IC50 (mGAT1 [1]) | remaining NO711 binding mGAT1 (mGAT1 [2]) | IC50 (mGAT3) | IC50 (mGAT2) | remaining [3H]GABA uptake mGAT1 (mGAT1 [1]) | remaining [3H]GABA uptake mGAT2 (mGAT2) | remaining [3H]GABA uptake mGAT4 (mGAT4) | Structure (SMILES) |
| --- | --- | --- | --- | --- | --- | --- | --- | --- |
| 72.4 µM | 26.3 µM | 100 μM: 74% | 41.7 µM | 24.5 µM |  |  |  | Cc1ccsc1C(=C1CCN([C@H](C[C@@H](C)O)C(=O)NCc2ccccc2)CC1)c1sccc1C (relative stereo) [2RS,4RS-37a, N-Benzyl-2-{4-[bis(3-methylthiophen-2-yl)methylidene]piperidin-1-yl}-4-hydroxypentanamide] |
| 19.5 µM | 17.8 µM | 100 μM: 76% | 11.5 µM | 15.8 µM |  |  |  | Cc1ccsc1C(=C1CCN([C@H](C[C@@H](C)O)C(=O)NCc2ccc(F)cc2)CC1)c1sccc1C (relative stereo) [2RS,4RS-37c, 2-{4-[Bis(3-methylthiophen-2-yl)methylidene]piperidin-1-yl}-N-[(4-fluorophenyl)methyl]-4-hydroxypentanamide] |
| 9.12 µM |  | 100 μM: 84% | 24 µM |  | 100 μM: 56% | 100 μM: 73% |  | C[C@@H](O)C[C@H](C(=O)NCc1ccc(Cl)cc1)N(C)CCC=C1c2ccccc2CCc2ccccc21 (relative stereo) [2RS,4RS-39b, N-(4-Chlorobenzyl)-2-((3-(10,11-dihydro-5H-dibenzo[a,d][7]annulen-5-ylidene)propyl)(methyl)amino)-4-hydroxypentanamide] |
| 27.5 µM | 29.5 µM | 100 μM: 78% | 61.7 µM |  |  | 100 μM: 60% |  | Cc1ccsc1C(=C1CCN([C@H](C[C@H](C)O)C(=O)NCc2ccccc2)CC1)c1sccc1C (relative stereo) [2RS,4SR-37a, N-Benzyl-2-{4-[bis(3-methylthiophen-2-yl)methylidene]piperidin-1-yl}-4-hydroxypentanamide] |
| 9.12 µM |  | 100 μM: 87% | 10.2 µM |  | 100 μM: 51% | 100 μM: 73% |  | C[C@H](O)C[C@H](C(=O)NCc1ccc(Cl)cc1)N(C)CCC=C1c2ccccc2CCc2ccccc21 (relative stereo) [2RS,4SR-39b, N-(4-Chlorobenzyl)-2-((3-(10,11-dihydro-5H-dibenzo[a,d][7]annulen-5-ylidene)propyl)(methyl)amino)-4-hydroxypentanamide] |
| 6.92 µM |  | 100 μM: 73% | 7.94 µM | 8.13 µM | 100 μM: 51% |  |  | Cc1ccc(CNC(=O)[C@@H](C[C@H](C)O)N(C)CCC=C2c3ccccc3CCc3ccccc32)cc1 (relative stereo) [2RS,4SR-39c, 2-((3-(10,11-Dihydro-5H-dibenzo[a,d][7]annulen-5-ylidene)propyl)(methyl)amino)-4-hydroxy-N-(4-methylbenzyl)pentanamide] |
| 61.7 µM |  | 100 μM: 94% | 93.3 µM |  | 100 μM: 52% | 100 μM: 58% |  | Cc1ccsc1C(=C1CCN(C(CC(C)O)C(=O)NCc2ccccc2Cl)CC1)c1sccc1C (centres unmarked) [2RS,4RS-37b, 2-{4-[Bis(3-methylthiophen-2-yl)methylidene]piperidin-1-yl}-N-[(2-chlorophenyl)methyl]-4-hydroxypentanamide] |
| 25.1 µM |  | 100 μM: 110% | 14.8 µM | 12.6 µM | 100 μM: 51% |  |  | CC(O)CC(C(=O)NCc1ccc(F)cc1)N(C)CCC=C1c2ccccc2CCc2ccccc21 (centres unmarked) [2RS,4RS-39a, 2-((3-(10,11-Dihydro-5H-dibenzo[a,d][7]annulen-5-ylidene)propyl)(methyl)amino)-N-(4-fluorobenzyl)-4-hydroxypentanamide] |
|  |  | 100 μM: 92% | 64.6 µM | 74.1 µM | 100 μM: 49% |  | 52% | CC(O)CC(C(=O)NCc1ccccc1)N1CCC(=C2c3ccccc3-c3ccccc32)CC1 (centres unmarked) [2RS,4RS-41a, N-Benzyl-2-[4-(9H-fluoren-9-ylidene)piperidin-1-yl]-4-hydroxypentanamide] |
| 26.3 µM | 17 µM | 100 μM: 77% | 21.4 µM | 56.2 µM |  |  |  | CC(O)CC(C(=O)NCc1ccccc1)N1CCC(=C2c3ccccc3CCc3ccccc32)CC1 (centres unmarked) [2RS,4RS-43a, N-Benzyl-2-(4-(10,11-dihydro-5H-dibenzo[a,d][7]annulen-5-ylidene)piperidin-1-yl)-4-hydroxypentanamide] |
| 47.9 µM | 70.8 µM | 100 μM: 86% | 38 µM |  |  | 100 μM: 59% |  | CC(O)CC(C(=O)NCc1ccc(F)cc1)N1CCC(=C2c3ccccc3CCc3ccccc32)CC1 (centres unmarked) [2RS,4RS-43b, 2-(4-(10,11-Dihydro-5H-dibenzo[a,d][7]annulen-5-ylidene)piperidin-1-yl)-N-(4-fluorobenzyl)-4-hydroxypentanamide] |
| 28.2 µM | 43.7 ± 0.801 µM | 100 μM: 100% | 20 µM | 45.7 µM |  |  |  | CC(O)CC(C(=O)NCc1ccccc1)N(C)CCON=C(c1ccccc1)c1ccccc1 (centres unmarked) [2RS,4RS-45, N-Benzyl-2-[(2-{[(diphenylmethylidene)amino]oxy}ethyl)(methyl)amino]-4-hydroxypentanamide] |
|  |  | 100 μM: 108% | 72.4 µM |  | 100 μM: 50% | 100 μM: 69% | 100 μM: 56% | Cc1ccsc1C(=C1CCN(C(CC(C)O)C(=O)NCc2ccccc2Cl)CC1)c1sccc1C (centres unmarked) [2RS,4SR-37b, 2-{4-[Bis(3-methylthiophen-2-yl)methylidene]piperidin-1-yl}-N-[(2-chlorophenyl)methyl]-4-hydroxypentanamide] |
| 72.4 µM | 85.1 µM | 100 μM: 89% | 55 µM | 89.1 µM |  |  |  | CC(O)CC(C(=O)NCc1ccccc1)N1CCC(=C2c3ccccc3-c3ccccc32)CC1 (centres unmarked) [2RS,4SR-41a, N-Benzyl-2-[4-(9H-fluoren-9-ylidene)piperidin-1-yl]-4-hydroxypentanamide] |
| 11.2 µM | 18.6 µM |  | 20.4 µM | 28.8 µM |  |  |  | Cc1ccc(CNC(=O)C(CO)N(C)CCC=C2c3ccccc3CCc3ccccc32)cc1 (centres unmarked) [Compound 56e, 2-((3-(10,11-Dihydro-5H-dibenzo[a,d][7]annulen-5-ylidene)propyl)(methyl)amino)-3-hydroxy-N-(4-methylbenzyl)propanamide] |
